From US20210382058A1, “PATIENT SELECTION FOR TREATMENT OF MYC POSITIVE CANCERS WITH INDENOISOQUINOLINES” (Purdue Research Foundation, priority 2020, published 2021)
Read-outs that look alike come from different tables or passages of the source.

Tests used:
[1] = molecular target: T1, human topoisomerase I (Homo sapiens, UniProt P11387); conditions: relative topoisomerase I inhibition levels, previously determined, six levels (0 - 5, +++++ = 5); cited from earlier work
T1 sequence (P11387 1-765): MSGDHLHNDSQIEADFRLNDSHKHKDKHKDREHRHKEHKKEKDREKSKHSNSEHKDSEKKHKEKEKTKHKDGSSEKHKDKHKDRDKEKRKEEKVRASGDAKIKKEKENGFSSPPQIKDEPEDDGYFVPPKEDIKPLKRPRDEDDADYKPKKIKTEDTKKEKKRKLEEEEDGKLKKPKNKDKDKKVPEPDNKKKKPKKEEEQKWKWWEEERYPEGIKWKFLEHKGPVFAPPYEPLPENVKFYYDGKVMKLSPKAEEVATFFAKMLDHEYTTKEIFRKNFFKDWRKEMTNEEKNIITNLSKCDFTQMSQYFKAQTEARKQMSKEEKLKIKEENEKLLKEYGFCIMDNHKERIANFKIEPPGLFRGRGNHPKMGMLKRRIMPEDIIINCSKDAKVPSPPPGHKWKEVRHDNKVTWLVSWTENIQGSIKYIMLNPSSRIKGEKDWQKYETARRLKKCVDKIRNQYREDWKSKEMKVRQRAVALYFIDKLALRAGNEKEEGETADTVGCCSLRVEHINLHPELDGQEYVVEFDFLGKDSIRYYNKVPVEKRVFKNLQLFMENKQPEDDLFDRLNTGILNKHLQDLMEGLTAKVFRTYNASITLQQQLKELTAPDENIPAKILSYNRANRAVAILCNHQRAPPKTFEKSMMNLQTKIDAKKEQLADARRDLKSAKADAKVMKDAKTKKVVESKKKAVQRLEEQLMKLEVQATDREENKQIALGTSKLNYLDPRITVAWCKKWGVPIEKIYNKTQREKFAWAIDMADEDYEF

[2] = test system: NCI-60 cancer cell lines; assay: NCI-60 cancer cell line drug screen (GI50, MGM); type: cell-based, human; conditions: Homo sapiens; for GI50: read-out: Antiproliferative Activities [GI50 (μM)]
Experimental: Cancer cells were incubated with the test compounds at five concentrations ranging from 100 μM to 10 nM for 48 h. […] The approximate average of GI50 values across the entire panel of NCI-60 cancer cell lines for each compound was recorded as the MGM value.

For `COc1cnc2c(c1)C(=O)c1c-2n(CCCNCCN2CCOCC2)c(=O)c2cc([N+](=O)[O-])ccc12` [Compound 11], the “Top1 Inhibiton” value [1] is listed as “+++ (strong inhibition, +++, MYC expression inhibited at 0.5 to 1.0 μM)”, the GI50 ([2]; 786-0, Renal Cancer, 786-0) is listed as 0.22 µM and the GI50 ([2]; A549, Non-Small Cell Lung Cancer, A549/ATCC) is listed as 0.12 µM. It also gave a GI50 ([2]; ACHN, Renal Cancer, ACHN) of 0.04 µM, a GI50 ([2]; BT-549, Breast Cancer, BT-549) of 0.29 µM and a GI50 ([2]; CAKI-1, Renal Cancer, CAKI-1) of 0.04 µM. The GI50 ([2]; CCRF-CEM, Leukemia, CCRF-CEM) was 0.05 µM, the GI50 ([2]; COLO 205, Colon Cancer, COLO 205) was 0.3 µM and the GI50 ([2]; DU-145, Prostate Cancer, DU-145) was 0.06 µM. It also gave a GI50 ([2]; EKVX, Non-Small Cell Lung Cancer, EKVX) of 0.45 µM, a GI50 ([2]; HCC 2998, Colon Cancer, HCC-2998) of 0.3 µM and a GI50 ([2]; HCT-15, Colon Cancer, HCT-15) of 0.3 µM. The GI50 ([2]; HL-60, Leukemia, HL-60(TB)) was 0.1 µM, the GI50 ([2]; HOP-92, Non-Small Cell Lung Cancer, HOP-92) was 0.87 µM and the GI50 ([2]; HT-29, Colon Cancer, HT29) was 0.15 µM. The GI50 ([2]; Hs-578T, Breast Cancer, HS 578T) was 3.85 µM, the GI50 ([2]; IGROV-1, Ovarian Cancer, IGROV1) was 0.42 µM and the GI50 ([2]; K562, Leukemia, K-562) was 0.23 µM. The GI50 ([2]; KM12, Colon Cancer, KM12) was 0.4 µM, the GI50 ([2]; LOX IMVI, Melanoma, LOX IMVI) was 0.04 µM and the GI50 ([2]; Leukemia, SR) was 0.02 µM. The GI50 ([2]; MCF7, Breast Cancer, MCF7) was 0.03 µM, the GI50 ([2]; MDA-MB-231, Breast Cancer, MDA-MB-231/ATCC) was 0.63 µM and the GI50 ([2]; MDA-MB-435, Melanoma, MDA-MB-435) was 0.42 µM. The GI50 ([2]; MDA-MB-468, Breast Cancer, MDA-MB-468) was 0.12 µM, the GI50 ([2]; MOLT-4, Leukemia, MOLT-4) was 0.03 µM and the GI50 ([2]; Malme-3M, Melanoma, MALME-3M) was 0.34 µM. The GI50 ([2]; Melanoma, M14) was 0.07 µM, the GI50 ([2]; NCI-H23, Non-Small Cell Lung Cancer, NCI-H23) was 0.15 µM and the GI50 ([2]; NCI-H226, Non-Small Cell Lung Cancer, NCI-H226) was 0.17 µM. It also gave a GI50 ([2]; NCI-H322M, Non-Small Cell Lung Cancer, NCI-H322M) of 0.28 µM, a GI50 ([2]; NCI-H460, Non-Small Cell Lung Cancer, NCI-H460) of 0.04 µM and a GI50 ([2]; NCI-H522, Non-Small Cell Lung Cancer, NCI-H522) of 0.08 µM. For the same molecule, the GI50 ([2]; OVCAR-3, Ovarian Cancer, OVCAR-3) was 0.32 µM, the GI50 ([2]; OVCAR-4, Ovarian Cancer, OVCAR-4) was 0.33 µM and the GI50 ([2]; OVCAR-5, Ovarian Cancer, OVCAR-5) was 0.45 µM. For the same molecule, the GI50 ([2]; OVCAR-8, Ovarian Cancer, OVCAR-8) was 0.17 µM, the GI50 ([2]; Ovarian Cancer, NCl/ADR-RES) was 0.13 µM and the GI50 ([2]; Prostate Cancer, PC-3) was 0.57 µM. The GI50 ([2]; RPMI-8226, Leukemia, RPMI-8226) was 0.17 µM, the GI50 ([2]; RXF 393, Renal Cancer, RXF 393) was 0.39 µM and the GI50 ([2]; Renal Cancer, U0-31) was 0.05 µM. The GI50 ([2]; SF-268, CNS Cancer, SF-268) was 0.08 µM, the GI50 ([2]; SF-295, CNS Cancer, SF-295) was 0.07 µM and the GI50 ([2]; SF-539, CNS Cancer, SF-539) was 0.31 µM. It also gave a GI50 ([2]; SK-MEL-2, Melanoma, SK-MEL-2) of 1.59 µM, a GI50 ([2]; SK-MEL-5, Melanoma, SK-MEL-5) of 0.26 µM and a GI50 ([2]; SK-MEL-28, Melanoma, SK-MEL-28) of 1.13 µM. It also gave a GI50 ([2]; SK-OV-3, Ovarian Cancer, SK-OV-3) of 0.14 µM, a GI50 ([2]; SNB-19, CNS Cancer, SNB-19) of 0.11 µM and a GI50 ([2]; SNB-75, CNS Cancer, SNB-75) of 0.27 µM. For the same molecule, the GI50 ([2]; SW-620, Colon Cancer, SW-620) was 0.13 µM, the GI50 ([2]; T47D, Breast Cancer, T-47D) was 0.11 µM and the GI50 ([2]; TK-10, Renal Cancer, TK-10) was 0.73 µM. It also gave a GI50 ([2]; U-251, CNS Cancer, U251) of 0.08 µM, a GI50 ([2]; UACC-62, Melanoma, UACC-62) of 0.04 µM and a GI50 ([2]; UACC-257, Melanoma, UACC-257) of 0.59 µM. The mean GI50 across NCI-60 panel (MGM) ([2]; average of GI50 values across the entire panel of NCI-60 cancer cell lines) was 0.177 µM.
